Converted amounts (≈) assume the structure as drawn. “Also recorded” adds a separate entry of the source.
Tests used:
[1] = test system: M. Aeruginosa; test: Liquid culture optical absorption assay (OD600) of M. aeruginosa growth, 15 days; assay type: cell-based, Microcystis aeruginosa; conditions: for OD600 Measured at Day 15 (Starting OD600 at Day 0 is 0.100): 0.5 mg/L compound, liquid culture, control 2.83; for Inhibition of M. aeruginosa growth in words (liquid culture): 0.5 mg/L, Table 2 and FIG. 3
Method: To quantitatively measure M. Aeruginosa cell growth in responding to various gamine compounds, cell densities were determined by an optical absorption assay as measured by a spectrophotometer (Nanodrop 2000, Thermo Scientific). In the optical absorption assay, the absorbance of radiation (light) is measured as a function of frequency (wavelength). For this optical absorption assay, the algal cell density was determined at 600 nm wavelength. Equal amount of starting cells (optical density at wavelength 600 nm, OD600, was at 0.100 on Day 0) were placed in freshwater culture for 15 days of growth. After 15 days, the algae cell suspension is pipetted into a cuvette and placed within the spectrophotometer for the optical absorption assay.
There is a clear and distinct decrease in M. Aeruginosa algae growth when administered with 5,6-dichlogramine (Compound No. 9) and with 5,6,7-trichlorogramine (Compound No. 12) compared to M. Aeruginosa algae growth in control samples.

[2] = test system: N. closterium algae; conditions: Li et al. 2009; cited from earlier work
[3] = test system: M. Aeruginosa; test: Effective potency duration test in 1 L tap fresh water; assay type: cell-based, Microcystis aeruginosa; conditions: about 0.05 mg/L; for OD600 after 180 days / OD600 after 15 days of M. aeruginosa growth: 1 L tap fresh water; for OD600 after 15 days of M. aeruginosa growth: unadministered control 0.119; for duration of effectiveness after administration: single administration
Method: Both 5,6-dichlorogramine and 5,6,7-trichlorogramine are not only potent M. aeruginosa growth inhibitors, but they are effective inhibitors for a long period of time. In an experiment to test the effective potency duration of the compound, an equal amount of M. aeruginosa was grown in each of two containers, each containing about 1 L of fresh water from an urban sink tap. One container was administered with about 0.05 mg/L of 5,6-dichlorogramine, and the control container was not administered with any compounds. After 15 days of M. aeruginosa growth, the OD600 measurement for the unadministered M. aeruginosa freshwater sample was 0.119. The unadministered M. aeruginosa freshwater sample was discarded after 15 days. In contrast, after 15 days of M. aeruginosa growth, the OD600 measurement for the 5,6-dichlorogramine administered freshwater sample was 0.003. After 180 days, the OD600 measurement for the M. aeruginosa freshwater sample administered with 5,6-dichlorogramine remained at 0.003.
In another experiment, an equal amount of M. aeruginosa was grown in each of two containers, each containing about 1 L of fresh water from an urban sink tap. One container was administered with about 0.05 mg/L of 5,6,7-trichlorogramine, and the control container was not administered with any compounds. After 15 days of M. aeruginosa growth, the OD600 measurement for the unadministered M. aeruginosa freshwater sample was 0.119. The unadministered M. aeruginosa freshwater sample was discarded after 15 days. In contrast, after 15 days of M. aeruginosa growth, the OD600 measurement for the 5,6,7-trichlrogramine administered freshwater sample was 0.003. After 180 days, the OD600 measurement for the M. aeruginosa freshwater sample administered with 5,6,7-trichlorogramine remained at 0.003.

[4] = test system: M. Aeruginosa; test: Optical absorption assay of M. aeruginosa growth at varying concentrations, 8 days, with LC50 calculation; assay type: cell-based, Microcystis aeruginosa; conditions: for OD600 as % of the corresponding OD600 measurement of the control sample: 8 days; for OD600 of M. aeruginosa after 8 days: start OD600 0.1, control about 2.4; for LC50: Microcystis aeruginosa, 192 h, read-out: Lethal Concentration 50 (LC50)
Method: (§1) Different concentrations of 5,6-dichlorogramine were administered to M. aeruginosa cells as indicated. M. aeruginosa cell density measurements were taken every 24 hours. […] During the first 3 days, the M. aeruginosa cell densities for the control sample and the 5,6-dichlorogramine samples were similar. But starting on day 4, there was larger differentiation in M. aeruginosa cell densities between the control samples and the 5,6-dichlorogramine administered samples. […] In contrast, the OD600 of M. aeruginosa after 8 days of exposure to 0.05 mg/L 5,6-dichlorogramine was about 0.9, only about 38% of the corresponding OD600 measurement of the control sample. The OD600 measurement for M. aeruginosa after 8 days of exposure to about 0.2 mg/L 5,6-dichlorogramine was about 0.6, only about 25% of the corresponding OD600 measurement of the control sample. The OD600 measurement for M. aeruginosa after 8 days of exposure to about 0.8 mg/L 5,6-dichlorogramine was about 0.3, only about 13% of the corresponding OD600 measurement of the control sample.
as §1, with “5,6,7-trichlorogramine” for “5,6-dichlorogramine”
LC50 is a common way to describe the median lethal concentration of an administered agent in a medium, such as air or water, needed to kill half of the organism population living within the medium. LC50 is a well-known method of describing the acute toxicity of an administered agent on the target organism population.
(§2) In FIG. 6, the optical density measurement (OD600) of the M. aeruginosa cells on day 8 was plotted against the administered 5,6-dichlorogramine concentration. […] Half of about 2.4 is about 1.2, and according to FIG. 6, the 1.2 optical density measurement corresponds to an approximately 0.03 mg/L 5,6-dichlorogramine concentration. Based on these calculations, the effective amount of 5,6-dichlorogramine to administer to control the growth and spread of M. aeruginosa algae in fresh water may be a 5,6-dichlorogramine concentration ranging between about 0.01 mg/L and about 0.05 mg/L, and may be more specifically about 0.03 mg/L.
as §2, with “7,” for “6,”, “(ODo)” for “(OD600)”, “5,6,7-trichlorogramine” for “5,6-dichlorogramine”

[5] = test system: Arabidopsis thaliana; test: Toxicity to Arabidopsis thaliana plants in petri dishes; assay type: in vivo; conditions: 8 mg/L in MS medium
Method: The effects of both compounds were tested on Arabidopsis thaliana, a small flowering plant that is widely used as an experimental model plant for laboratory studies. A. thaliana seeds were placed in petri dishes containing standard plant growth media with one gramine compound added (about 8 mg/L). For the control sample, the seeds were placed on the identical growth media without any gramine compound added. All petri dishes containing A. thaliana were kept in a lighted plant growth chamber at 22° C. with cycles of 16-hr light and 8-hr dark. Seed germination and seedling development were closely monitored and documented every 24 hours.
(§3) FIGS. 8a and 8b show images of A. thaliana plants after 8 days of plant growth, or 8 days after germination. The A. thaliana plants were grown in petri dishes filled with Murashige and Skoog medium (MS plant growth medium containing both macronutrients, micronutrients, and vitamins) purchased from Sigma (Cat #M5519)).
as §3, with “9a” for “8a”, “9b” for “8b”, “10” for “8”, “of” for “of plant”

[6] = test system: M. aeruginosa cyanobacteria, isolate strain 2667; test: Petri dish screen of gramine compounds for M. aeruginosa growth inhibition; assay type: cell-based, Microcystis aeruginosa; conditions: about 0.5 mg/L compound in BG-11 medium, after 15 days, FIG. 2
Method: The screen tested the compounds on M. aeruginosa cyanobacteria, isolate strain 2667 from Culture Collection of Algae (CCA) at the University of Texas at Austin. For the initial screening test, the twelve compounds were each administered at different concentrations of: 0.5 mg/L, 1.0 mg/L, 2.0 mg/L, 4.0 mg/L, and 8.0 mg/L. The compounds were added to a freshwater culture medium (BG-11 Medium from the CCA, UTEX) in petri dishes. The petri dish plates were then incubated at about 22° C. in a lighted growth chamber with about 16-hr light and about 8-hr dark. M. aeruginosa algae growth in the petri dishes were examined and documented after 15 days of incubation.
M. aeruginosa cells were streaked out on BG-11 medium that contained about 0.5 mg/L of the indicated compound. […] The faint algae smears for petri dishes streaked with 5,6-dichlogramine show the original algae cells that had died in the petri dish. […] The faint algae smears for petri dishes streaked with 5,6,7-trichlogramine show the original algae cells that had died in the petri dish.

[7] = test system: M. Aeruginosa; conditions: according to the Hong articles; cited from earlier work
[8] = test system: M. aeruginosa cyanobacterium; conditions: U.S. Pat. No. 7,612,049; cited from earlier work

CN(C)Cc1c[nH]c2ccc(Cl)cc12 [Compound No. 1, 5-chlorogramine]
OD600 Measured at Day 15 (Starting OD600 at Day 0 is 0.100) [1]: 1.89 | Inhibition of M. aeruginosa growth in words (liquid culture) [1]: some inhibitory effects

CN(C)Cc1c[nH]c2cc(Cl)c(Cl)cc12 [Compound No. 9, 5,6-dichlorogramine]
inhibition of growth of saltwater N. closterium algae [2]: inhibit the growth | OD600 after 180 days [3]: 0.003 | OD600 after 15 days of M. aeruginosa growth [3]: 0.003 | duration of effectiveness after administration [3]: at least 180 days | OD600 as % of the corresponding OD600 measurement of the control sample ([4]; 0.05 mg/L): about 38% | OD600 of M. aeruginosa after 8 days ([4]; 0.05 mg/L): about 0.9 | LC50 [4]: ~0.03 µg/mL (≈ 0.123 µM) | OD600 as % of the corresponding OD600 measurement of the control sample ([4]; about 0.2 mg/L): about 25% | OD600 of M. aeruginosa after 8 days ([4]; about 0.2 mg/L): about 0.6 | OD600 as % of the corresponding OD600 measurement of the control sample ([4]; about 0.8 mg/L): about 13% | OD600 of M. aeruginosa after 8 days ([4]; about 0.8 mg/L): about 0.3 | Inhibition of M. aeruginosa growth in words (liquid culture) [1]: significantly inhibit the growth | growth and development of A. thaliana versus control ([5]; 8 days after germination): no growth or developmental difference | M. aeruginosa growth in petri dishes [6]: no M. aeruginosa growth; also recorded: inhibited M. aeruginosa growth completely

CN(C)Cc1c[nH]c2c(Cl)c(Cl)c(Cl)cc12 [Compound No. 12, 5,6,7-trichlorogramine]
OD600 after 180 days [3]: 0.003 | OD600 after 15 days of M. aeruginosa growth [3]: 0.003 | duration of effectiveness after administration [3]: at least 180 days | OD600 as % of the corresponding OD600 measurement of the control sample ([4]; 0.05 mg/L): about 38% | OD600 of M. aeruginosa after 8 days ([4]; 0.05 mg/L): about 0.9 | LC50 [4]: ~0.03 µg/mL (≈ 0.108 µM) | OD600 as % of the corresponding OD600 measurement of the control sample ([4]; about 0.2 mg/L): about 25% | OD600 of M. aeruginosa after 8 days ([4]; about 0.2 mg/L): about 0.6 | OD600 as % of the corresponding OD600 measurement of the control sample ([4]; about 0.8 mg/L): about 13% | OD600 of M. aeruginosa after 8 days ([4]; about 0.8 mg/L): about 0.3 | Inhibition of M. aeruginosa growth in words (liquid culture) [1]: significantly inhibit the growth | growth and development of A. thaliana versus control ([5]; 10 days after germination): no growth or developmental difference | M. aeruginosa growth in petri dishes [6]: no M. aeruginosa growth; also recorded: inhibited M. aeruginosa growth completely

CN(C)Cc1c[nH]c2ccccc12 [N,N-dimethyl-3-amino-methylindole]
concentration needed to inhibit the growth of M. aeruginosa [7]: at least 8 mg/L

CN(C)Cc1c[nH]c2ccc(Br)cc12 [compound 2, 5-bromogramine]
OD600 Measured at Day 15 (Starting OD600 at Day 0 is 0.100) [1]: 1.95 | Inhibition of M. aeruginosa growth in words (liquid culture) [1]: some inhibitory effects

COc1ccc2[nH]cc(CN(C)C)c2c1 [compound 3, 5-methoxygramine]
OD600 Measured at Day 15 (Starting OD600 at Day 0 is 0.100) [1]: 2.45

Cc1cccc2[nH]cc(CN(C)C)c12 [compound 4, 4-methylgramine]
OD600 Measured at Day 15 (Starting OD600 at Day 0 is 0.100) [1]: 2.49

CN(C)Cc1c[nH]c2ccc(C#N)cc12 [compound 5, 5-cyanogramine]
OD600 Measured at Day 15 (Starting OD600 at Day 0 is 0.100) [1]: 2.32

CN(C)Cc1c[nH]c2cc(OCc3ccccc3)ccc12 [compound 7, 6-benzyloxygramine]
OD600 Measured at Day 15 (Starting OD600 at Day 0 is 0.100) [1]: 2.12 | Inhibition of M. aeruginosa growth in words (liquid culture) [1]: some inhibitory effects

CN(C)Cc1c[nH]c2cccc(OCc3ccccc3)c12 [compound 8, 4-benzyloxygramine]
OD600 Measured at Day 15 (Starting OD600 at Day 0 is 0.100) [1]: 2.54

COc1cccc2[nH]cc(CN(C)C)c12 [compound 10, 4-methoxygramine]
OD600 Measured at Day 15 (Starting OD600 at Day 0 is 0.100) [1]: 2.66

CN(C)Cc1c[nH]c2cccc(C#N)c12 [compound 11, 4-cyanogramine]
OD600 Measured at Day 15 (Starting OD600 at Day 0 is 0.100) [1]: 2.50

N[C@H]1C(O)O[C@H](CO)[C@@H](O)[C@@H]1O (some centres unmarked) [glucosamine]
concentration to inhibit the growth of M. aeruginosa [8]: 10-50 ppm

From US8945397B2, “Methods of inhibiting cyanobacteria growth by administering gramine derivatives” (priority 2012, dated 2015)
